Test results taken from PubChem BioAssay (NCI).
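All cell lines were grown in 96-well plates and treated with compound for 48 hours. GI50 = concentration required for 50% inhibition of growth. Definition used: TGI = concentration required for complete inhibition of growth.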

Legend:
Assay in all cases: NCI anticancer screen, dose series, 48 h; in the data active means GI50 below about 0.43 µM; inactive means the rest
UACC-257 melanoma = tested on: UACC-257 melanoma
RXF 393 renal = tested on: RXF 393 renal
SN12C renal = tested on: SN12C renal
NCI-H522 lung = tested on: NCI-H522 lung
OVCAR-8 ovarian = tested on: OVCAR-8 ovarian
KM12 colon = tested on: KM12 colon
SK-MEL-5 melanoma = tested on: SK-MEL-5 melanoma
SF-268 CNS = tested on: SF-268 CNS
T-47D breast = tested on: T-47D breast
HCT-15 colon = tested on: HCT-15 colon
M14 melanoma = tested on: M14 melanoma
A549 NSCLC = tested on: A549 NSCLC
MCF7 breast = tested on: MCF7 breast
HOP-92 NSCLC = tested on: HOP-92 NSCLC
DU-145 prostate = tested on: DU-145 prostate
NCI-H460 lung = tested on: NCI-H460 lung
COLO 205 colon = tested on: COLO 205 colon
PC-3 prostate = tested on: PC-3 prostate
MOLT-4 leukemia = tested on: MOLT-4 leukemia
MALME-3M melanoma = tested on: MALME-3M melanoma
HT29 colon = tested on: HT29 colon
CAKI-1 renal = tested on: CAKI-1 renal
SK-MEL-2 melanoma = tested on: SK-MEL-2 melanoma
UO-31 renal = tested on: UO-31 renal
SR leukemia = tested on: SR leukemia
A498 renal = tested on: A498 renal
SK-OV-3 ovarian = tested on: SK-OV-3 ovarian
K-562 leukemia = tested on: K-562 leukemia
OVCAR-3 ovarian = tested on: OVCAR-3 ovarian

CCc1cc(Nc2nccc(-c3c(-c4ccc(OC)c(C(=O)Nc5c(F)cccc5F)c4)nc4ccccn34)n2)c(OC)cc1N1CCC(N2CCN(S(C)(=O)=O)CC2)CC1
> 80 µM: TGI (HOP-92 NSCLC)
> 100 µM: TGI (UACC-257 melanoma) | TGI (RXF 393 renal) | TGI (SN12C renal) | TGI (NCI-H522 lung) | TGI (OVCAR-8 ovarian) | TGI (KM12 colon) | TGI (SK-MEL-5 melanoma) | TGI (SF-268 CNS) | TGI (T-47D breast) | TGI (HCT-15 colon) | TGI (M14 melanoma) | TGI (A549 NSCLC) | TGI (MCF7 breast) | TGI (DU-145 prostate) | TGI (NCI-H460 lung) | TGI (COLO 205 colon) | TGI (PC-3 prostate) | TGI (MOLT-4 leukemia) | TGI (MALME-3M melanoma) | TGI (HT29 colon) | TGI (CAKI-1 renal) | TGI (UO-31 renal) | TGI (SR leukemia) | TGI (A498 renal) | TGI (SK-OV-3 ovarian) | TGI (K-562 leukemia) | TGI (OVCAR-3 ovarian)
inactive: GI50 (UACC-257 melanoma) > 40.1 µM | GI50 (RXF 393 renal) > 47 µM | GI50 (SN12C renal) > 100 µM | GI50 (NCI-H522 lung) > 100 µM | GI50 (OVCAR-8 ovarian) > 100 µM | GI50 (KM12 colon) > 100 µM | GI50 (SK-MEL-5 melanoma) > 64.8 µM | GI50 (SF-268 CNS) > 100 µM | GI50 (T-47D breast) > 100 µM | GI50 (HCT-15 colon) > 100 µM | GI50 (M14 melanoma) > 58.1 µM | GI50 (A549 NSCLC) > 48.3 µM | GI50 (HOP-92 NSCLC) 1.14 µM | GI50 (DU-145 prostate) > 100 µM | GI50 (NCI-H460 lung) > 71.7 µM | GI50 (PC-3 prostate) > 100 µM | GI50 (MOLT-4 leukemia) > 100 µM | GI50 (MALME-3M melanoma) > 100 µM | GI50 (CAKI-1 renal) > 100 µM | GI50 (SK-MEL-2 melanoma) > 51.8 µM | GI50 (UO-31 renal) > 100 µM | GI50 (SR leukemia) > 100 µM | GI50 (A498 renal) > 100 µM | GI50 (SK-OV-3 ovarian) > 100 µM | GI50 (K-562 leukemia) > 100 µM | GI50 (OVCAR-3 ovarian) > 100 µM
> 88.4 µM: TGI (SK-MEL-2 melanoma)
